Measurements from the kinase profiling compilation of Christmann-Franck et al. (2016).

Experiments:
Assay in all cases: radiometric filter-binding kinase assay, Kinase HotSpot
Conditions in all cases: compound 0.5 µM; ATP 10 µM
AURKA (human) = AURKA (human) (UniProt O14965)
CAMK1 (human) = CAMK1 (human) (UniProt Q14012)
CAMKK2 (human) = CAMKK2 (human) (UniProt Q96RR4)
CDC42BPA (human) = CDC42BPA (human) (UniProt Q5VT25)
CDK1 CCNB1 (human) = CDK1 CCNB1 (human) (UniProt P06493+P14635)
CDK2 CCNA2 (human) = CDK2 CCNA2 (human) (UniProt P24941+P20248)
Chain of CDK2 CCNA2 (human) (P20248 whole entry, looked up, other chains not shown): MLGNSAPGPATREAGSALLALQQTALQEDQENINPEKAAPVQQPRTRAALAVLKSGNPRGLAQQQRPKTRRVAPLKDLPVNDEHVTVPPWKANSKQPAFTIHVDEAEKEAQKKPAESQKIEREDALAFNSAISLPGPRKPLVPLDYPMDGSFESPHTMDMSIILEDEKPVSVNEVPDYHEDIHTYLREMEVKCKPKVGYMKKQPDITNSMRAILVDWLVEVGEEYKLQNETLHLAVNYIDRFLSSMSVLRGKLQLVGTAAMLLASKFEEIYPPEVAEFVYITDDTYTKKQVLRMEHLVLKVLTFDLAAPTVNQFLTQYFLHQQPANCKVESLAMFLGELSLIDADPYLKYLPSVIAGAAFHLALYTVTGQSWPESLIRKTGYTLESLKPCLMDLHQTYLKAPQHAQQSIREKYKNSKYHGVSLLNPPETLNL

CDK5 CDK5R1 p35 (human) = CDK5 CDK5R1 p35 (human) (UniProt Q00535+Q15078)
CDK6 CCND3 (human) = CDK6 CCND3 (human) (UniProt P30281+Q00534)
CDK7 CCNH MNAT1 (human) = CDK7 CCNH MNAT1 (human) (UniProt P50613+P51948+P51946)
Chain of CDK7 CCNH MNAT1 (human) (P50613 whole entry, looked up): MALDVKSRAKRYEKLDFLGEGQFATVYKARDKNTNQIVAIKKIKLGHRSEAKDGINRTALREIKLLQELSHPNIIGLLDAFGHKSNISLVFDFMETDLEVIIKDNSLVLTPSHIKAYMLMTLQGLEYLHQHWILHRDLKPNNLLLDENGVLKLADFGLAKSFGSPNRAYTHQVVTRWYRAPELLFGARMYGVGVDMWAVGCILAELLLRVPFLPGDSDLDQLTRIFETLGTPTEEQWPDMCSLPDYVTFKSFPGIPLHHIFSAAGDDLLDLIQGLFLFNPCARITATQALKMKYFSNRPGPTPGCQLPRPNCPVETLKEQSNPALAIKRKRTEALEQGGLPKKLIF
Chain of CDK7 CCNH MNAT1 (human) (P51946 whole entry, looked up): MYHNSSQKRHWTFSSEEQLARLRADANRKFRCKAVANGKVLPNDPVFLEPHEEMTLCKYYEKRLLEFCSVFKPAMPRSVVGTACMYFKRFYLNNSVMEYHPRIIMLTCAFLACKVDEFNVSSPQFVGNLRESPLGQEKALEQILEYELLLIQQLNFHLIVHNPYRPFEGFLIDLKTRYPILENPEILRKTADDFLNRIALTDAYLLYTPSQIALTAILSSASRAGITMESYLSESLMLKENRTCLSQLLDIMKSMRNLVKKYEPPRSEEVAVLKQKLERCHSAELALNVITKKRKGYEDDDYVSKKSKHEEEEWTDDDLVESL
Chain of CDK7 CCNH MNAT1 (human) (P51948 whole entry, looked up): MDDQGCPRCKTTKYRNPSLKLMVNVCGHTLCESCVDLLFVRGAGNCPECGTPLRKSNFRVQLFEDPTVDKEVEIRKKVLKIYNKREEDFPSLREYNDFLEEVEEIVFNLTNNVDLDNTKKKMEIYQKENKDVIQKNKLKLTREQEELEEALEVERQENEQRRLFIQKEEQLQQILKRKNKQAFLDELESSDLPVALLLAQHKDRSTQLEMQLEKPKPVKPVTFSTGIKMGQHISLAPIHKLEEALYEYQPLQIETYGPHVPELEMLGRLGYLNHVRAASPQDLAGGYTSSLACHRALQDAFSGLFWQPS

CDK9 CCNK (human) = CDK9 CCNK (human) (UniProt O75909+P50750)
CSF1R (human) = CSF1R (human) (UniProt P07333)
DYRK2 (human) = DYRK2 (human) (UniProt Q92630)
EPHB1 (human) = EPHB1 (human) (UniProt P54762)
ERBB4 (human) = ERBB4 (human) (UniProt Q15303)
FGFR2 (human) = FGFR2 (human) (UniProt P21802)
GRK7 (human) = GRK7 (human) (UniProt Q8WTQ7)
Chain of GRK7 (human) (Q8WTQ7 whole entry, looked up): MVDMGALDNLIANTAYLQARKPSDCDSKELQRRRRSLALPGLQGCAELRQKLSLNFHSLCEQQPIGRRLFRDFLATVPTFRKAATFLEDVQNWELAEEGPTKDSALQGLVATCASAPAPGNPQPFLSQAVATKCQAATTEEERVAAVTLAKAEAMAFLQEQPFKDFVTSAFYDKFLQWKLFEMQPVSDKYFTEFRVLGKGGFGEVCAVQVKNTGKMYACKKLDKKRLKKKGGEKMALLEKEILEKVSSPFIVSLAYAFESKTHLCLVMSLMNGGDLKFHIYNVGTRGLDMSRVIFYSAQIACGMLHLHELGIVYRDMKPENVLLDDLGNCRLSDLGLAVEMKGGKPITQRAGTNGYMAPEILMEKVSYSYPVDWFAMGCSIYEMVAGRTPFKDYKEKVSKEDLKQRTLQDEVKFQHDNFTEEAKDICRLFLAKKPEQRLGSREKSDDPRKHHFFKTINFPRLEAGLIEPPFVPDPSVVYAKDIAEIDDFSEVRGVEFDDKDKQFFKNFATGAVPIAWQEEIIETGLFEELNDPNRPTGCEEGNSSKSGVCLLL

IRAK1 (human) = IRAK1 (human) (UniProt P51617)
MAP3K10 (human) = MAP3K10 (human) (UniProt Q02779)
MAP3K14 (human) = MAP3K14 (human) (UniProt Q99558)
Chain of MAP3K14 (human) (Q99558 whole entry, looked up): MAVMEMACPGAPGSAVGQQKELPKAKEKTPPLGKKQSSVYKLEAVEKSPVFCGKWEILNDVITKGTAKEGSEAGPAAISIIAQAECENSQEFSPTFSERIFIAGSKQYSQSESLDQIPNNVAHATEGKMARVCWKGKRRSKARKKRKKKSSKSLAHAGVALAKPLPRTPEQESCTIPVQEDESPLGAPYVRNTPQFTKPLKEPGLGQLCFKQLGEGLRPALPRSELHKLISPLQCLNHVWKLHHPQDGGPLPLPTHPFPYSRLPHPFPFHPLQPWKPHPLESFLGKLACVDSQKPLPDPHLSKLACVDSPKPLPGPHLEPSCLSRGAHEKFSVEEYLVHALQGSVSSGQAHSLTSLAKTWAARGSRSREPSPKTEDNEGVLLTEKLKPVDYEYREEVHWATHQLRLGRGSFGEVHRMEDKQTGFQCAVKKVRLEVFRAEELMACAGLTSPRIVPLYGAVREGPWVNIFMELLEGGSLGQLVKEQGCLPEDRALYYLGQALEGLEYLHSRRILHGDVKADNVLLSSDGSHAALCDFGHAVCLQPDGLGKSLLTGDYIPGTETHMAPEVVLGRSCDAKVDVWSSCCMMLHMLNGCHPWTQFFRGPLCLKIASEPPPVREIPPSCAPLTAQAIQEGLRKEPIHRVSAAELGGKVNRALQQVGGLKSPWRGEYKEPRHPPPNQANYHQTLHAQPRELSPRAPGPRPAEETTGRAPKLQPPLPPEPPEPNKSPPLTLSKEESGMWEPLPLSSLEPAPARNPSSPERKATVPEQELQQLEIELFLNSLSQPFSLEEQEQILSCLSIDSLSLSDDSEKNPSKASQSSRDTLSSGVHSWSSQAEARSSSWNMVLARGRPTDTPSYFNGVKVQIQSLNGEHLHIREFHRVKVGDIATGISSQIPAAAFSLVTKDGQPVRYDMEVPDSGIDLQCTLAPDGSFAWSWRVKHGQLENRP

MAP3K5 (human) = MAP3K5 (human) (UniProt Q99683)
MAPK11 (human) = MAPK11 (human) (UniProt Q15759)
Chain of MAPK11 (human) (Q15759 whole entry, looked up): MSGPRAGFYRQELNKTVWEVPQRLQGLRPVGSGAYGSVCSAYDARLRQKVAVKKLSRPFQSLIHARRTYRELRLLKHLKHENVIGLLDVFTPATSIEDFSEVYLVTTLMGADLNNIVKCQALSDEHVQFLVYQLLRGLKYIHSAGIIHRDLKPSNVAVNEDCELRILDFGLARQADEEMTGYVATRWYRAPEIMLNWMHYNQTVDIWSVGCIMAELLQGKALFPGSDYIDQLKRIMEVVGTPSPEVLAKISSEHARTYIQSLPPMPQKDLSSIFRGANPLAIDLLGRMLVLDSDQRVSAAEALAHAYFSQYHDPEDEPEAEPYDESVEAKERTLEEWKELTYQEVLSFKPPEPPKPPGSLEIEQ

MAPKAPK3 (human) = MAPKAPK3 (human) (UniProt Q16644)
Chain of MAPKAPK3 (human) (Q16644 whole entry, looked up): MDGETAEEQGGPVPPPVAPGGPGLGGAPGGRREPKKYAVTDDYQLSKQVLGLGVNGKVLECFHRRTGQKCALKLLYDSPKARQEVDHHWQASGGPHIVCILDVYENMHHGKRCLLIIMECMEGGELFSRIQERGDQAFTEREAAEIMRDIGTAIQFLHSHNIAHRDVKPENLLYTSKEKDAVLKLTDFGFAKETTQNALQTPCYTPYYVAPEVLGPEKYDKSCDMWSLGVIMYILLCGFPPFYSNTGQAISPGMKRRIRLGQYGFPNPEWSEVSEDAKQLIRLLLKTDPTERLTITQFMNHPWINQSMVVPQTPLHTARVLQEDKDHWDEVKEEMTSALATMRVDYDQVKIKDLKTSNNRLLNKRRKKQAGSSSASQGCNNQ

MAPKAPK5 (human) = MAPKAPK5 (human) (UniProt Q8IW41)
MARK1 (human) = MARK1 (human) (UniProt Q9P0L2)
MERTK (human) = MERTK (human) (UniProt Q12866)
MYLK2 (human) = MYLK2 (human) (UniProt Q9H1R3)
NEK11 (human) = NEK11 (human) (UniProt Q8NG66)
PAK3 (human) = PAK3 (human) (UniProt O75914)
PDGFRB (human) = PDGFRB (human) (UniProt P09619)
PKN1 (human) = PKN1 (human) (UniProt Q16512)
PKN2 (human) = PKN2 (human) (UniProt Q16513)
PRKCE (human) = PRKCE (human) (UniProt Q02156)
PRKCI (human) = PRKCI (human) (UniProt P41743)
PTK2 (human) = PTK2 (human) (UniProt Q05397)
RIPK2 (human) = RIPK2 (human) (UniProt O43353)
ROCK1 (human) = ROCK1 (human) (UniProt Q13464)
TAOK1 (human) = TAOK1 (human) (UniProt Q7L7X3)
TGFBR2 (human) = TGFBR2 (human) (UniProt P37173)
TNK2 (human) = TNK2 (human) (UniProt Q07912)
TSSK2 (human) = TSSK2 (human) (UniProt Q96PF2)
Chain of TSSK2 (human) (Q96PF2 whole entry, looked up): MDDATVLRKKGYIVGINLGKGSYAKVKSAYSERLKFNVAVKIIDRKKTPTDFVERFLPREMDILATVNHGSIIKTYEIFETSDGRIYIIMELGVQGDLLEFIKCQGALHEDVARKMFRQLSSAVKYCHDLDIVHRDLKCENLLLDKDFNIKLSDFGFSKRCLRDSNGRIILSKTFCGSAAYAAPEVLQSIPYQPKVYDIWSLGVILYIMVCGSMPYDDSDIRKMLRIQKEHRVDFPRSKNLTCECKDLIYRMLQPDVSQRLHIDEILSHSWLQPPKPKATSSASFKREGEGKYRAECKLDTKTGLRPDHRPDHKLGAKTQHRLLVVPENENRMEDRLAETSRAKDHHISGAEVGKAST

TTK (human) = TTK (human) (UniProt P33981)

Chain of CAMK1 (human) (Q14012 whole entry, looked up): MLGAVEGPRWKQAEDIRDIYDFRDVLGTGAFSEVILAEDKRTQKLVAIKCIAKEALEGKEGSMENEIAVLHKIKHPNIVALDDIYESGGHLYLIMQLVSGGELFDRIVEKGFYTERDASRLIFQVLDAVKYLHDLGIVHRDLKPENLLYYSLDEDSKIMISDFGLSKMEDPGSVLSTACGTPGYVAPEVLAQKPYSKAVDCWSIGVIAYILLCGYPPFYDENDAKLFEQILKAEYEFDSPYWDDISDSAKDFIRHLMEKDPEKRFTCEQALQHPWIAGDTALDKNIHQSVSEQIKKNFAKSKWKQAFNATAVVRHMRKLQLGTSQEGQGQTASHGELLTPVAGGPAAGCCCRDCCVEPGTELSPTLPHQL
Chain of CAMKK2 (human) (Q96RR4 whole entry, looked up): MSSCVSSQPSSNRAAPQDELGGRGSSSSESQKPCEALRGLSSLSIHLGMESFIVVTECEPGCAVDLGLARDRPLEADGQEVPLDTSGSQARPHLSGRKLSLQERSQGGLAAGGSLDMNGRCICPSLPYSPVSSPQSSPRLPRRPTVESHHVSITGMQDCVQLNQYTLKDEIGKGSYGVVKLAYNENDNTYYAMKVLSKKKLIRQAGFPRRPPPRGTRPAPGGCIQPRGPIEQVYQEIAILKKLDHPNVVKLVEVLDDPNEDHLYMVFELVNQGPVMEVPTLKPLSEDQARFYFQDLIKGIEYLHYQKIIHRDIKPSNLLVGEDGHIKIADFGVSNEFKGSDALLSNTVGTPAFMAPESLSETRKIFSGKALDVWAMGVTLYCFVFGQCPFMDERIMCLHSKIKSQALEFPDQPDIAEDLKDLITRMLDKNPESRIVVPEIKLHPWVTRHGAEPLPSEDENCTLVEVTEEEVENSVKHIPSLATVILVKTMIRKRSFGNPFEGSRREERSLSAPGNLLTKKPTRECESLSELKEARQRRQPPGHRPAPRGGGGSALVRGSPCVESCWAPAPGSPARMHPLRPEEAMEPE

Compound `O=C(c1cc2cc(O)ccc2[nH]1)c1cc2cc(O)ccc2[nH]1` has a residual activity (AURKA (human)) of 71.6%, a residual activity (CAMK1 (human)) of 97.4% and a residual activity (CAMKK2 (human)) of 84.2%. It also gave a residual activity (CDC42BPA (human)) of 90.2%, a residual activity (CDK1 CCNB1 (human)) of 60.5% and a residual activity (CDK2 CCNA2 (human)) of 61.5%. It also gave a residual activity (CDK5 CDK5R1 p35 (human)) of 57.3%, a residual activity (CDK6 CCND3 (human)) of 50.3% and a residual activity (CDK7 CCNH MNAT1 (human)) of 93.5%. The residual activity (CDK9 CCNK (human)) was 49.5%, the residual activity (CSF1R (human)) was 97.7% and the residual activity (DYRK2 (human)) was 89%. It also gave a residual activity (EPHB1 (human)) of 97%, a residual activity (ERBB4 (human)) of 102% and a residual activity (FGFR2 (human)) of 98.5%. The residual activity (GRK7 (human)) was 99.8%, the residual activity (IRAK1 (human)) was 98.1% and the residual activity (MAP3K10 (human)) was 91.7%. The residual activity (MAP3K14 (human)) was 77.1%, the residual activity (MAP3K5 (human)) was 89.6% and the residual activity (MAPK11 (human)) was 95.7%. The residual activity (MAPKAPK3 (human)) was 91.2%, the residual activity (MAPKAPK5 (human)) was 89.6% and the residual activity (MARK1 (human)) was 66.3%. The residual activity (MERTK (human)) was 81.8%, the residual activity (MYLK2 (human)) was 21.1% and the residual activity (NEK11 (human)) was 96.7%. For the same compound, the residual activity (PAK3 (human)) was 99.2%, the residual activity (PDGFRB (human)) was 41.7% and the residual activity (PKN1 (human)) was 76.3%. It also gave a residual activity (PKN2 (human)) of 97.1%, a residual activity (PRKCE (human)) of 119% and a residual activity (PRKCI (human)) of 98.4%. For the same compound, the residual activity (PTK2 (human)) was 109%, the residual activity (RIPK2 (human)) was 37.8% and the residual activity (ROCK1 (human)) was 96.2%. It also gave a residual activity (TAOK1 (human)) of 85.6%, a residual activity (TGFBR2 (human)) of 123% and a residual activity (TNK2 (human)) of 90.6%. For the same compound, the residual activity (TSSK2 (human)) was 93.6% and the residual activity (TTK (human)) was 92.9%.

Compound `O=C1NC(=O)c2c1c1c3ccccc3[nH]c1n1cncc21` has a residual activity (AURKA (human)) of 34.8%, a residual activity (CAMK1 (human)) of 83.3% and a residual activity (CAMKK2 (human)) of 77.2%. The residual activity (CDC42BPA (human)) was 92.7%, the residual activity (CDK1 CCNB1 (human)) was 85.5% and the residual activity (CDK2 CCNA2 (human)) was 75.9%. It also gave a residual activity (CDK5 CDK5R1 p35 (human)) of 67%, a residual activity (CDK6 CCND3 (human)) of 74.3% and a residual activity (CDK7 CCNH MNAT1 (human)) of 92.3%. The residual activity (CDK9 CCNK (human)) was 83.8%, the residual activity (CSF1R (human)) was 64.9% and the residual activity (DYRK2 (human)) was 64.1%. The residual activity (EPHB1 (human)) was 94%, the residual activity (ERBB4 (human)) was 102% and the residual activity (FGFR2 (human)) was 91.3%. The residual activity (GRK7 (human)) was 96.2%, the residual activity (IRAK1 (human)) was 83.1% and the residual activity (MAP3K10 (human)) was 82.5%. It also gave a residual activity (MAP3K14 (human)) of 83%, a residual activity (MAP3K5 (human)) of 97.8% and a residual activity (MAPK11 (human)) of 94.5%. It also gave a residual activity (MAPKAPK3 (human)) of 88.7%, a residual activity (MAPKAPK5 (human)) of 123% and a residual activity (MARK1 (human)) of 36.7%. It also gave a residual activity (MERTK (human)) of 53.9%, a residual activity (MYLK2 (human)) of 33.7% and a residual activity (NEK11 (human)) of 99%. It also gave a residual activity (PAK3 (human)) of 100%, a residual activity (PDGFRB (human)) of 68.4% and a residual activity (PKN1 (human)) of 76.4%. For the same compound, the residual activity (PKN2 (human)) was 95.5%, the residual activity (PRKCE (human)) was 84.9% and the residual activity (PRKCI (human)) was 82.3%. The residual activity (PTK2 (human)) was 56.9%, the residual activity (RIPK2 (human)) was 67.5% and the residual activity (ROCK1 (human)) was 95.9%. It also gave a residual activity (TAOK1 (human)) of 135%, a residual activity (TGFBR2 (human)) of 95.8% and a residual activity (TNK2 (human)) of 41.3%. The residual activity (TSSK2 (human)) was 99.1% and the residual activity (TTK (human)) was 79%.
